Test results: PubChem BioAssay AID1745844 (Carcinogenic Potency Database (CPDB), 2022)

Tested on: rodent lifetime carcinogenesis bioassay, tumor incidence TD50
Assay: chronic cancer bioassays in animals – CPDB, compiled studies (AID 1745844)
Conditions: inhaled

For `C=CC=C`, the TD50 (mouse, strain B6C3F1, males, site: liver, lesion: hepatocellular adenoma + hepatocellular carcinoma + neoplastic nodule, dosed 60 weeks, study length 60 weeks) was 541 mg/kg/day, the TD50 (mouse, strain B6C3F1, males, site: liver, lesion: hepatocellular adenoma + hepatocellular carcinoma + neoplastic nodule, dosed 82 weeks, study length 104 weeks) was 23.9 mg/kg/day and the TD50 (mouse, strain B6C3F1, males, site: liver, lesion: hepatocellular adenoma + hepatocellular carcinoma, dosed 13 weeks, study length 104 weeks) was 15.1 mg/kg/day. The TD50 (mouse, strain B6C3F1, males, site: liver, lesion: hepatocellular adenoma + hepatocellular carcinoma, dosed 26 weeks, study length 104 weeks) was 23.8 mg/kg/day, the TD50 (mouse, strain B6C3F1, males, site: liver, lesion: hepatocellular adenoma + hepatocellular carcinoma, dosed 40 weeks, study length 104 weeks) was 16.8 mg/kg/day and the TD50 (mouse, strain B6C3F1, males, site: liver, lesion: hepatocellular adenoma + hepatocellular carcinoma, dosed 52 weeks, study length 104 weeks) was 14.6 mg/kg/day. The TD50 (mouse, strain B6C3F1, males, site: liver, lesion: hepatocellular adenoma + hepatocellular carcinoma, dosed 82 weeks, study length 104 weeks) was 23.9 mg/kg/day, the TD50 (mouse, strain B6C3F1, males, site: liver, lesion: hepatocellular adenoma, dosed 13 weeks, study length 104 weeks) was 17.9 mg/kg/day and the TD50 (mouse, strain B6C3F1, males, site: liver, lesion: hepatocellular adenoma, dosed 26 weeks, study length 104 weeks) was 27.8 mg/kg/day. The TD50 (mouse, strain B6C3F1, males, site: liver, lesion: hepatocellular adenoma, dosed 40 weeks, study length 104 weeks) was 18 mg/kg/day, the TD50 (mouse, strain B6C3F1, males, site: liver, lesion: hepatocellular adenoma, dosed 52 weeks, study length 104 weeks) was 15.8 mg/kg/day and the TD50 (mouse, strain B6C3F1, males, site: liver, lesion: hepatocellular adenoma, dosed 82 weeks, study length 104 weeks) was 34.1 mg/kg/day. It also gave a TD50 (mouse, strain B6C3F1, males, site: liver, lesion: hepatocellular carcinoma, dosed 13 weeks, study length 104 weeks) of 23.4 mg/kg/day, a TD50 (mouse, strain B6C3F1, males, site: liver, lesion: hepatocellular carcinoma, dosed 26 weeks, study length 104 weeks) of 60 mg/kg/day and a TD50 (mouse, strain B6C3F1, males, site: liver, lesion: hepatocellular carcinoma, dosed 40 weeks, study length 104 weeks) of 62 mg/kg/day. The TD50 (mouse, strain B6C3F1, males, site: liver, lesion: hepatocellular carcinoma, dosed 52 weeks, study length 104 weeks) was 47 mg/kg/day, the TD50 (mouse, strain B6C3F1, males, site: liver, lesion: hepatocellular carcinoma, dosed 82 weeks, study length 104 weeks) was 34.4 mg/kg/day and the TD50 (mouse, strain B6C3F1, males, site: lung, lesion: alveolar/bronchiolar adenoma + alveolar/bronchiolar carcinoma + adenocarcinoma, dosed 13 weeks, study length 104 weeks) was 8.59 mg/kg/day. For the same compound, the TD50 (mouse, strain B6C3F1, males, site: lung, lesion: alveolar/bronchiolar adenoma + alveolar/bronchiolar carcinoma + adenocarcinoma, dosed 52 weeks, study length 104 weeks) was 7.17 mg/kg/day, the TD50 (mouse, strain B6C3F1, males, site: lung, lesion: alveolar/bronchiolar adenoma + alveolar/bronchiolar carcinoma + adenocarcinoma, dosed 82 weeks, study length 104 weeks) was 19.2 mg/kg/day and the TD50 (mouse, strain B6C3F1, males, site: lung, lesion: alveolar/bronchiolar adenoma + alveolar/bronchiolar carcinoma, dosed 13 weeks, study length 104 weeks) was 8.59 mg/kg/day. The TD50 (mouse, strain B6C3F1, males, site: lung, lesion: alveolar/bronchiolar adenoma + alveolar/bronchiolar carcinoma, dosed 26 weeks, study length 104 weeks) was 13.4 mg/kg/day, the TD50 (mouse, strain B6C3F1, males, site: lung, lesion: alveolar/bronchiolar adenoma + alveolar/bronchiolar carcinoma, dosed 40 weeks, study length 104 weeks) was 11 mg/kg/day and the TD50 (mouse, strain B6C3F1, males, site: lung, lesion: alveolar/bronchiolar adenoma + alveolar/bronchiolar carcinoma, dosed 52 weeks, study length 104 weeks) was 7.25 mg/kg/day. It also gave a TD50 (mouse, strain B6C3F1, males, site: lung, lesion: alveolar/bronchiolar adenoma + alveolar/bronchiolar carcinoma, dosed 60 weeks, study length 60 weeks) of 65.9 mg/kg/day, a TD50 (mouse, strain B6C3F1, males, site: lung, lesion: alveolar/bronchiolar adenoma + alveolar/bronchiolar carcinoma, dosed 82 weeks, study length 104 weeks) of 19.6 mg/kg/day and a TD50 (mouse, strain B6C3F1, males, site: lung, lesion: alveolar/bronchiolar adenoma, dosed 13 weeks, study length 104 weeks) of 17.1 mg/kg/day. The TD50 (mouse, strain B6C3F1, males, site: lung, lesion: alveolar/bronchiolar adenoma, dosed 26 weeks, study length 104 weeks) was 17.3 mg/kg/day, the TD50 (mouse, strain B6C3F1, males, site: lung, lesion: alveolar/bronchiolar adenoma, dosed 40 weeks, study length 104 weeks) was 18.1 mg/kg/day and the TD50 (mouse, strain B6C3F1, males, site: lung, lesion: alveolar/bronchiolar adenoma, dosed 52 weeks, study length 104 weeks) was 9.13 mg/kg/day. The TD50 (mouse, strain B6C3F1, males, site: lung, lesion: alveolar/bronchiolar adenoma, dosed 60 weeks, study length 60 weeks) was 96.9 mg/kg/day, the TD50 (mouse, strain B6C3F1, males, site: lung, lesion: alveolar/bronchiolar adenoma, dosed 82 weeks, study length 104 weeks) was 33.2 mg/kg/day and the TD50 (mouse, strain B6C3F1, males, site: lung, lesion: alveolar/bronchiolar carcinoma + adenocarcinoma, dosed 13 weeks, study length 104 weeks) was 14.1 mg/kg/day. It also gave a TD50 (mouse, strain B6C3F1, males, site: lung, lesion: alveolar/bronchiolar carcinoma + adenocarcinoma, dosed 52 weeks, study length 104 weeks) of 13 mg/kg/day, a TD50 (mouse, strain B6C3F1, males, site: lung, lesion: alveolar/bronchiolar carcinoma + adenocarcinoma, dosed 82 weeks, study length 104 weeks) of 32.4 mg/kg/day and a TD50 (mouse, strain B6C3F1, males, site: lung, lesion: alveolar/bronchiolar carcinoma, dosed 26 weeks, study length 104 weeks) of 17.8 mg/kg/day. It also gave a TD50 (mouse, strain B6C3F1, males, site: lung, lesion: alveolar/bronchiolar carcinoma, dosed 40 weeks, study length 104 weeks) of 16.3 mg/kg/day, a TD50 (mouse, strain B6C3F1, males, site: lung, lesion: alveolar/bronchiolar carcinoma, dosed 60 weeks, study length 60 weeks) of 312 mg/kg/day and a TD50 (mouse, strain B6C3F1, males, site: preputial gland, lesion: adenoma + carcinoma + carcinoma, bilateral, dosed 13 weeks, study length 104 weeks) of 119 mg/kg/day. The TD50 (mouse, strain B6C3F1, males, site: preputial gland, lesion: adenoma + carcinoma + carcinoma, bilateral, dosed 26 weeks, study length 104 weeks) was 27.1 mg/kg/day, the TD50 (mouse, strain B6C3F1, males, site: preputial gland, lesion: adenoma + carcinoma + carcinoma, bilateral, dosed 40 weeks, study length 104 weeks) was 351 mg/kg/day and the TD50 (mouse, strain B6C3F1, males, site: preputial gland, lesion: carcinoma + carcinoma, bilateral, dosed 13 weeks, study length 104 weeks) was 167 mg/kg/day. It also gave a TD50 (mouse, strain B6C3F1, males, site: preputial gland, lesion: carcinoma + carcinoma, bilateral, dosed 26 weeks, study length 104 weeks) of 27.1 mg/kg/day, a TD50 (mouse, strain B6C3F1, males, site: preputial gland, lesion: carcinoma + carcinoma, bilateral, dosed 40 weeks, study length 104 weeks) of 351 mg/kg/day and a TD50 (mouse, strain B6C3F1, males, site: preputial gland, lesion: carcinoma + carcinoma, bilateral, dosed 52 weeks, study length 104 weeks) of 20.1 mg/kg/day. For the same compound, the TD50 (mouse, strain B6C3F1, males, site: preputial gland, lesion: carcinoma, NOS + squamous-cell carcinoma, dosed 60 weeks, study length 60 weeks) was 403 mg/kg/day, the TD50 (mouse, strain B6C3F1, males, site: preputial gland, lesion: carcinoma, dosed 82 weeks, study length 104 weeks) was 384 mg/kg/day and the TD50 (mouse, strain B6C3F1, males, site: preputial gland, lesion: squamous-cell carcinoma, dosed 60 weeks, study length 60 weeks) was 538 mg/kg/day. For the same compound, the TD50 (mouse, strain B6C3F1, males, site: subcutaneous tissue, lesion: hemangiosarcoma, dosed 82 weeks, study length 104 weeks) was 666 mg/kg/day, the TD50 (rat, strain Charles River CD (Sprague-Dawley), females, site: mammary gland, lesion: benign tumor, dosed 105 weeks, study length 105 weeks) was 182 mg/kg/day and the TD50 (rat, strain Charles River CD (Sprague-Dawley), females, site: mammary gland, lesion: malignant tumor, dosed 105 weeks, study length 105 weeks) was 7720 mg/kg/day. It also gave a TD50 (rat, strain Charles River CD (Sprague-Dawley), females, site: mammary gland, lesion: several types, types named in the paper, dosed 105 weeks, study length 105 weeks) of 133 mg/kg/day, a TD50 (rat, strain Charles River CD (Sprague-Dawley), females, site: thyroid gland, lesion: follicular-cell adenoma, dosed 105 weeks, study length 105 weeks) of 8270 mg/kg/day and a TD50 (rat, strain Charles River CD (Sprague-Dawley), males, site: any site (literature study), lesion: one or several types, types not named, dosed 111 weeks, study length 111 weeks) of 1470 mg/kg/day. For the same compound, the TD50 (rat, strain Charles River CD (Sprague-Dawley), males, site: pancreas, lesion: exocrine adenoma, dosed 111 weeks, study length 111 weeks) was 9310 mg/kg/day and the TD50 (rat, strain Charles River CD (Sprague-Dawley), males, site: testis, lesion: Leydig-cell tumor, dosed 111 weeks, study length 111 weeks) was 7550 mg/kg/day.
